Results reported in ChEMBL document CHEMBL5150022, “Small Molecule Inhibitors of Lymphocyte Perforin as Focused Immunosuppressants for Infection and Autoimmunity” (J Med Chem, 2022).

Tests used:
[1] = target: Perforin-1 (Mus musculus) (UniProt P10820); assay: Inhibition of recombinant Perforin-1 (mouse)
[2] = target: Perforin-1 (Mus musculus) (UniProt P10820); assay: Inhibition of Perforin-1 in human Jurkat cells

Sequence of Perforin-1 (Mus musculus) (P10820 whole entry, looked up): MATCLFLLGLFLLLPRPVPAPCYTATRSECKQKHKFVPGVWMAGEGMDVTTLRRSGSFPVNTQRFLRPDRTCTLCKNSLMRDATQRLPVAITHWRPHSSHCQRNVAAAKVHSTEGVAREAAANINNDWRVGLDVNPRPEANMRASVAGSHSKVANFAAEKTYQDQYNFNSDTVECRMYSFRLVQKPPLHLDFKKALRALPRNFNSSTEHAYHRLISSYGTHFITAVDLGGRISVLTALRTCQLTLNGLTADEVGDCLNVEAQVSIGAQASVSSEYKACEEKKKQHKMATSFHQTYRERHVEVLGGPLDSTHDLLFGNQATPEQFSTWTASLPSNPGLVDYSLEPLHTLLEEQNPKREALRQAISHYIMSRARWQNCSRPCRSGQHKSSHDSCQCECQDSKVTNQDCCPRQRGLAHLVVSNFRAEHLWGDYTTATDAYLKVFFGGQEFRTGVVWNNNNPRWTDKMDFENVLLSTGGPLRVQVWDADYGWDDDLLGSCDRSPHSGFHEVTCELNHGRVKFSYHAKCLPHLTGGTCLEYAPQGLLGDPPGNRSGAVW

Structure (SMILES)	IC50 [1] [µM]	IC50 [2] [µM]
CN1CCc2cc(-c3ccc(-c4cncc(NS(=O)(=O)c5ccc(F)cc5F)c4)s3)ccc2C1=O	> 20	–
O=C1NCCc2ccc(-c3ccc(-c4cncc(NS(=O)(=O)c5ccc(F)cc5F)c4)s3)cc21	> 20	–
Cc1cc2c(c(=S)[nH]1)C(=O)O/C2=C\c1ccc(C)o1	–	2.7
Cc1ccc2c(c1)C(c1ccc(-c3cncc(NS(=O)(=O)c4ccc(F)cc4F)c3)s1)N(C)C2=O (stereo not given)	> 20	–
O=C1NCCc2cc(-c3ccc(-c4cncc(NS(=O)(=O)c5ccc(F)cc5F)c4)s3)ccc21	> 20	–
